This assay concerns field violet (Viola arvensis, VIOAR). Put plainly: Field trials, post-emergence application in winter wheat, % biomass control visually rated. The format is in vivo. An excerpt:
The materials were applied early post-emergence. % BIOMASS CONTROL was visually rated.

Consider `COC(=O)c1nc(-c2ccc(Cl)c(OC)c2F)cc(N)c1Cl` [Cmpd 1, methyl 4-amino-3-chloro-6-(4-chloro-2-fluoro-3-methoxyphenyl)-pyridine-2-carboxylate], for which, where the note is “Cmpd 1 7.5 g ae/ha”, the “% BIOMASS CONTROL 39 DAA Obs” value amounted to 13.33d %, the “% BIOMASS CONTROL 181 DAA Obs” value is listed as 23.33f % and the “% BIOMASS CONTROL 225 DAA Obs” value is 18.33f %.
Take `CC(C)N(C(=O)COc1nnc(C(F)(F)F)s1)c1ccc(F)cc1` [Flufenacet, N-(4-fluorophenyl)-N-(1-methylethyl)-2-[[5-(trifluoromethyl)-1,3,4-thiadiazol-2-yl]oxy]acetamide]: under “flufenacet 240 g ai/ha”, the “% BIOMASS CONTROL 39 DAA Obs” value is listed as 10.00d %, the “% BIOMASS CONTROL 181 DAA Obs” value is 15.00g % and the “% BIOMASS CONTROL 225 DAA Obs” value turned out to be 10.00g %.

The values are drawn from patent publication US20140179523A1, “HERBICIDAL COMPOSITIONS COMPRISING 4-AMINO-3-CHLORO-6-(4-CHLORO-2-FLUORO-3-METHOXYPHENYL) PYRIDINE-2-CARBOXYLIC ACID OR A DERIVATIVE THEREOF AND FLUFENACET” (DOW AGROSCIENCES LLC, priority 2012, published 2014).
